# System: CH1
# Assay: Antiproliferative activity in human ovarian cancer cell line (CH1) using MTT assay
# Type: functional, cell-based
row,Sequence,IC50
1,CARBOPLATIN,2500 nM
2,OXALIPLATIN,270 nM

# Source: ChEMBL document CHEMBL1145890, “Synthesis, characterization, and in vitro antitumor activity of osteotropic diam(m)ineplatinum(II) complexes bearing a N,N-bis(phosphonomethyl)glycine ligand” (J Med Chem, 2003)
